Measured values: US11291654B2, “Formulations of cycloserine compounds and applications thereof” (SyneuRx International (Taiwan) Corp., priority 2018, dated 2022)
Like-named read-outs stand apart in the source and are kept apart here.

Assay type: physicochemical
Procedure: 1. Stress Testing of D-cycloserine Stability test was held with 500 mg of commercially available D-cycloserine from Macleods Pharma, opened and stored under high humidity (>90% RH or 75% RH) at room temperature, a high temperature (40° C. or 60° C.) or a light condition for 10 days. […] In the following experiments, the total impurity was set up to confirm the stability of D-cycloserine.

- Appearance (0 day): White Powder
- Total Impurity (%) (0 day): 0.59%
- Moisture-absorption Weight Gain (%) (25° C., 75% RH, 10 days): 0.25%
- Total Impurity (%) (25° C., 75% RH, 10 days): 1.71%
- Moisture-absorption Weight Gain (%) (25° C., >90% RH, 10 days): 21.11%
- Total Impurity (%) (25° C., >90% RH, 10 days): 86.64%
- Appearance (40° C., 10 days): White Powder
- Total Impurity (%) (40° C., 10 days): 0.70%
- Appearance (60° C., 10 days): White Powder
- Total Impurity (%) (60° C., 10 days): 0.66%
- Stability (in words) (10 days): relatively stable at 40 °C and 60 °C
- Appearance (Light, 10 days): White Powder
- Total Impurity (%) (Light, 10 days): 0.96%
SMILES: N[C@H]1CONC1=O (stereo in doubt) [D-cycloserine (Macleods Pharma), 4-amino-3-isoxazolidinone]
